Among the data in BindingDB's records for doi:10.1074/jbc.M113.510743 (Max Planck Institute of Biophysics, 2014) are Kd values, retold here.

The assay concerns the target T1, APC family lysine-specific permease (Salmonella typhimurium (strain LT2 / SGSC1412 / ATCC 700720), UniProt Q8ZNK9).
T1 sequence (Q8ZNK9 whole entry): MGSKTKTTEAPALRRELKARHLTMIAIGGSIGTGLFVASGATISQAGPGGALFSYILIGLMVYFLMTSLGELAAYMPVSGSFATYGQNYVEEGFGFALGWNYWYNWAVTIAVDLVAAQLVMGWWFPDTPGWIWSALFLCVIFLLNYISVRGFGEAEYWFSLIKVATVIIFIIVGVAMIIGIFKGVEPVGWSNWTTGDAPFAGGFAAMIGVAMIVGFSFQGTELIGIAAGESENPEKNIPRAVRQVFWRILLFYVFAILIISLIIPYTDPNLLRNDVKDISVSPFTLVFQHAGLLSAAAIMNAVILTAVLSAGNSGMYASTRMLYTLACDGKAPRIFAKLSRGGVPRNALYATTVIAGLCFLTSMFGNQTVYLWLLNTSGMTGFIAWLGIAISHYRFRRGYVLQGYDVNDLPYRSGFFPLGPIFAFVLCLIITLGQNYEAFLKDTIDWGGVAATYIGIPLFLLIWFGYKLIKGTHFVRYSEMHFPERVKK
Kind of assay: Isothermal Titration Calorimetry (ITC). Particulars: pH 5.9; 20 °C. As for the experimental part: ITC measurements were carried out at 20 °C with a VP-ITC calorimeter (GE Healthcare, MicroCal, Inc.) consisting of a 1.45-ml reaction cell. STM2200 in 20 mM MES-NaOH, 150 mM NaCl, 0.025% (w/v) β-DDM, pH 5.9 at concentrations ranging between 15 and 30 μM was titrated with ligands under conditions where the sum of the ionic strengths of ligand and NaCl was always 150 mM. After an initial 4-μl injection, all subsequent ligand additions consisted of 5 μl every 240-300 s. Stirring was at 307 rpm.
(Isothermal titration calorimetry measures the heat released or taken up as one component is titrated into another.)

The structures appear in SMILES notation.

`NCCCC[C@@H](N)C(=O)O` [(2R)-2,6-diaminohexanoic acid]: binding was characterised by a dissociation constant (Kd) of 1800 µM.

In the case of `NCCCC[C@H](N)C(=O)O` [(2S)-2,6-diaminohexanoic acid], binding was characterised by a dissociation constant (Kd) of 40 µM.
